Assay results reported in a melting point compilation (Tetko et al.; mined from patent text by program, amines drawn as free bases though some values may be those of a salt).

Row | melting point [°C] | Compound
1 | 91 to 93 | CCN(CC)C(=O)c1ccc2ccccc2c1-c1cccc(OC)c1
2 | 183 to 185 | C=C(C(=O)O)c1ccc2c(c1)Cc1ccccc1-2
3 | 107 to 108 | CCCN(CCC)CCCOc1ccc(S(=O)(=O)c2c(C)cn3ccccc23)cc1
4 | 95 to 96 | O=C1c2cccc3cccc(c23)C(=O)N1CCCCCCBr
5 | 38 to 39 | NS(=O)(=O)c1ccc(-c2c(-c3ccccc3)noc2COCC(F)(F)C(F)(F)C(F)(F)CO[N+](=O)[O-])cc1
6 | 219 to 221 | O=C1CCC(N2C(=O)c3cccc(Nc4ccc(C5CCCCC5)cc4)c3C2=O)C(=O)N1 (stereo not drawn)
7 | 185 | CC1(c2ccccc2Cl)C(=O)Nc2ccc(Cl)cc21 (stereo not drawn)
8 | 108 | COc1ccccc1CNC(=O)c1ccc2nc(NCc3ccccc3OC)ccc2c1
9 | 140 | CCCCC(=O)C(Cc1ccc(C(=O)O)cc1)c1ccccc1 (stereo not drawn)
10 | > 300 | Cn1c(=O)c2c(-c3ccccc3)n(-c3cc([N+](=O)[O-])ccc3N)cc2n(C)c1=O
11 | 166 | Cn1cc(-c2ccccc2)c(=O)c(-c2ccc(Cl)c(Cl)c2)c1
12 | 112 to 115 | Cc1cc(-c2ccc(Cl)cc2)nc2c(C#Cc3ccc(C(C)(C)O)cc3)cnn12
13 | 137 to 139 | CS(=O)c1ccc(S(=O)(=O)N2CCCC(c3ccccc3)=N2)cc1 (stereo not drawn)
14 | 170 to 173 | Cc1cc(N2C(=O)c3ccccc3C2=O)c(C)cc1N=CN(C)C
15 | 244 to 246 | Oc1cc2c(cc1-c1nc3cc(Cl)ccc3o1)oc1ccccc12
16 | 240 to 241 | CCCc1c(C#N)c2ccc(C(=O)O)cc2n1Cc1ccccc1Cl
17 | 286 to 288 | O=C(O)c1ccc(-n2cc3ccccc3n2)cc1
18 | 115 to 116 | COc1nc(C)n2nc(SCc3ccccc3)nc2c1Cl
19 | 113 to 115 | COc1ccc(-c2nnc3c4ccccc4c(N(C)CCCCl)nn23)cc1
20 | 164 to 166 | COc1ccc(C2=NN(c3ccccc3)C(c3ccc(N)cc3)C2)cc1 (stereo not drawn)
21 | 218 to 219 | COC(=O)c1ccc(N2C(=O)c3ccccc3C2=O)cc1O
22 | 51 to 57 | O=S(Cc1noc(Cc2ccccc2)n1)c1ccc(CCNC[C@H](O)COc2ccc(O)cc2)cc1 (stereo partly drawn)
23 | 189 to 190 | ClCc1ccccc1-c1ccccc1-c1ccccc1CCl
24 | 154 to 155 | CN(C)Cc1cccc(OCCCNc2nc3ccccc3s2)c1

The next lines start with the compound.

Row | Compound | melting point [°C]
25 | O=C(Nc1cccc(-c2nnn[nH]2)c1)NC1N=C(c2ccccc2F)c2cccc(Cl)c2N(CC(=O)N2CC3CCC(CC3)C2)C1=O (stereo not drawn) | 172 to 180
26 | Cn1nc2c(N)nc3c(c2c1CC(C)(C)O)CCCC3 | 228 to 234
27 | Cc1ccnc(CSCCNc2ncc(Cc3cccnc3)c(=O)[nH]2)c1Br | 81 to 85
28 | CNC(=O)Oc1ccccc1C(=O)NC(Oc1ccccc1)C(Cl)(Cl)Cl (stereo not drawn) | 138 to 141
29 | COC(=O)C(=O)Oc1c(F)c(F)c(F)c(F)c1F | 34 to 35
30 | COC(=O)C1=C(C)NC(C)=C(C(=O)OC)C1c1ccccc1NC(C)=O | 284 to 285
31 | Cc1cccc(C)c1C(=O)c1sc(Nc2ccc(N3CCOCC3)cc2)nc1N | 221 to 223
32 | O=C(COc1ccc(O)cc1)N1CCN(CC(O)Cn2c3ccccc3c3ccccc32)CC1 (stereo not drawn) | 155
33 | Cc1cc(=O)[nH]nc1-c1ccc2c(c1)C(C)CC(=O)N2 (stereo not drawn) | > 300
34 | CN1CCN(C(=O)OC2c3ccccc3C(=O)N2c2ccc3cnccc3n2)CC1 (stereo not drawn) | 215
35 | COc1cc2ncc(C#N)c(Nc3ccc4[nH]c(=O)sc4c3)c2cc1OC | 285 to 287
36 | NC(=O)c1c(C(=O)O)cnn1-c1cccc(Cl)c1 | 223 to 225
37 | CCOC(=O)CC[C@H](NC(=O)c1ccc(Br)cc1)C(=O)OCC | 82.5 to 83.5
38 | COC(=O)c1ccc2c(=O)n(CC(C)C)c(CNC(=O)OC(C)(C)C)c(-c3cccs3)c2c1 | 170 to 171
39 | CCC1(CCO)OCCc2c1[nH]c1c(C)cccc21 (stereo not drawn) | 68
40 | CC(C)NCCCCOc1ccc(O)cc1 | 91 to 93
41 | CC1(C)Cc2sccc2C1N (stereo not drawn) | 80
42 | CN(C)c1ccnc(CO)n1 | 83 to 84
43 | CC1(C)C(=O)C(C)(C)c2cc(C(F)CN3CCN(c4nsc5ccccc45)CC3)ccc21 (stereo not drawn) | 64 to 73
44 | COCOc1nn(-c2ccccc2)cc1/C=C/c1csc(C(C)(C)C)n1 | 112 to 113
45 | CCOC(=O)C(=CNC1CC1)C(=O)c1c(F)cc(F)c(F)c1F | 107 to 108
46 | O=Cc1c[nH]c2c(F)cccc12 | 203 to 205
47 | OC(CCCl)COc1ccc(Cl)c(Cl)c1 (stereo not drawn) | 82 to 84
48 | COc1ccc(Cn2nc(-n3cnn(Cc4ccc(F)cc4)c3=O)cc2C(=O)NCc2ccc(F)c(F)c2)cc1 | 156 to 158
49 | COc1cc(OC)c([C@@H]2CCN(C)C[C@H]2O)c(OC)c1 (relative stereo) | 96 to 97

Row | Compound | melting point [°C]
50 | Cc1cc(NC(=O)OC(C)(C)C)c(C)c(C)c1O | 158 to 161
51 | COc1ccc(CCSCC2CCC2)cc1 | 52
52 | O=C(N[C@H]1CC[C@H](CCN2CCN(c3nccc4c3CCO4)CC2)CC1)c1ccc(Cl)cc1Cl | 204
53 | Cc1c(C2(c3ccccc3)CCC(c3ccccc3)(N(C)C)CC2)[nH]c2ccccc12 (stereo not drawn) | 193 to 207
54 | Nc1ccc(N2C(=O)CNC2=O)cc1 | 230 to 231
55 | O=C(O)Cn1c(=O)c(=O)[nH]c2cc(Cl)c(Cl)cc21 | 317 to 319
56 | O=Cc1ccc(-c2ccc(C=O)s2)s1 | 213 to 214
57 | CNCc1ccc(C2CCN(c3cc4c(cc3F)c(=O)c(C(=O)O)cn4C3CC3)C2)cc1 (stereo not drawn) | 235 to 237
58 | CCOC(=O)C1=NS(=O)(=O)c2ccccc21 | 114 to 115
59 | CCCc1c(OCCCSc2ccc(C(=O)CCC(=O)O)c(F)c2)ccc(C(C)=O)c1O | 149 to 150
60 | CC(=O)NC1=C(N)C(=O)c2cc(C)c(C)cc2C1=O | 212 to 216
61 | CCOC(=O)C(C)(Cc1ccc(OCCN2CCCCC2)cc1)S(=O)(=O)c1ccc(OC)cc1 (stereo not drawn) | 106
62 | CON=C(C#N)C(N)=O | 170 to 172
63 | COc1ccc2c(c1OC)CC[C@@H]1NC(=O)CC[C@H]21 (relative stereo) | 243 to 245
64 | NC1=Nc2ccc(-c3cccc(Cl)c3)cc2C12CCCCC2 | 118 to 120
65 | O=S(=O)(OCC(F)(F)C(F)F)c1ccc2ccccc2c1 | 89.6
66 | Cc1cnc(C(=O)c2[nH]c3ccc(Cl)cc3c2CC(=O)O)s1 | 231 to 233
67 | O=C(/C=C/c1c[nH]c2ccc(O)cc12)c1ccncc1 | 262 to 268
68 | O=C(/C=C/c1ccccc1)N1CCCC1 | 100
69 | COC(=O)c1cc([N+](=O)[O-])c(Oc2cc(C)cc(C)c2)c(S(N)(=O)=O)c1 | 197 to 198
70 | CC(=O)OCC(=O)C1=CCC2C3CCC4=CC(=O)C=CC4(C)C3(F)C(OC(C)=O)CC12C (stereo not drawn) | 294 to 296
71 | CC(C)(C#N)CN1C(=O)C2(OCCCO2)c2cc(Cl)ccc21 | 114 to 116
72 | CC(=O)N1CCc2ccsc2C1=O | 92
73 | CCN1CCC(O)(c2cc(F)cc(F)c2)C1 (single isomer, unassigned; (-)) | 111 to 112
